Results published in patent US8946119B2, “Chitooligosaccharides and methods for use in enhancing soybean growth” (Novozymes BioAg A/S, priority 2011, dated 2015).

Legend:
[1] = tested on: soybean foliage; assay: Soybean field trials, foliar treatment, grain yield; conditions: in vivo
[2] = tested on: Soybean seeds (Jung seed, var. 8168NRR); assay: Greenhouse soybean seed treatment, leaf surface area; format: in vivo; conditions: seed treatment 3 fl oz/100 lbs of seed; seedlings grown 4 wks; central leaflet of 2nd trifoliate; vs control (water); FIG. 5
Method: Soybean seeds (Jung seed, var. 8168NRR) were treated with various active molecules. Seeds were treated with a liquid dose rate of 3 fl oz/100 lbs of seed. Seeds were allowed to dry for a 2 hours and planted in greenhouse in plastic pots containing 1:1 sand:perlite mixture. Seedlings were grown for 4 wks with occasional liquid fertilizer applications and then the plants were harvested. The central leaflet from the 2nd trifoliate (from down to top) was isolated and measured for surface area on a WinRhizo scanner. The rest of the plants were used for plant dry weight (DW).

[3] = tested on: Soybean seeds (Pioneer 9oM80); assay: Soybean seed treatment in petriplates, radicle length; format: in vivo; conditions: germination paper soaked with 5 ml of treatment solution; radicles measured after 48 hours; FIG. 7
Method: Soybean seeds (Pioneer 9oM80) were plated in petriplates on moist germination paper soaked with 5 ml of treatment solution containing either water or Soybean LCO, Pea CO and CO plus fatty acids. Seedling radicles were isolated after 48 hours and measured for their length.

[4] = tested on: Soybean plants (Jung seed, var. 8168NRR); assay: Greenhouse soybean foliar treatment, plant dry biomass; format: in vivo; conditions: foliar application at V4 growth stage, FIG. 8
Method: Soybean plants (Jung seed, var. 8168NRR) were treated with various active molecules at V4 growth stage. Plant were grown from seeds in greenhouse in plastic pots containing 1:1 sand:perlite mixture. Seedlings were grown for 4 wks with occasional liquid fertilizer applications and then the plants were harvested.

LCO-V (C18:1) [LCO (SP104)]
Positive Yield Response (%) [1]: 68.4%
Response (bu/A) over Control [1]: 1.8 bu/A
Response Increase (% of Control) [1]: 3%
YIELD, Mean (N = 19) [1]: 58.3 bu/A
leaf surface area [2]: significant increase in leaf surface area

LCO-V(C18:1, MeFuc) [soybean LCO]
radicle length [3]: better seed radicle growth enhancement over control and CO
plant dry biomass [4]: no significant effect on plant dry biomass increase
plant dry biomass ([4]; listed as LCO): relatively higher than the control plants
